Patent US8632825B2, “Anti-tumoural effects of cannabinoid combinations” (GW Pharma Limited, priority 2008, dated 2014)
Where a SMILES comes first, the peptide text is derived from it. The star is where a group is joined. Cbz = O=C(OCc1ccccc1)*; CH2F = FC*

Key:
[1] = test system: human U87 MG astrocytoma cells; experiment: Cell viability of human U87 MG astrocytoma cells in culture; format: cell-based; details: U-87 MG, pure cannabinoids
Procedure: Tetrahydrocannabinol (THC) and cannabidiol (CBD) in the form of cannabis plant extracts were dissolved in ethanol to a concentration of 100 mM this was stored at −20° C. until required.
Before use the cannabis plant extracts were further diluted to the desired concentration, ensuring that the concentration of ethanol was below 0.001%.
U87 human glioma cells were used throughout this experiment. The cells were maintained at 37° C. in a humidified atmosphere with 5% CO2 and 95% air.
Cells were cultured in a 75 cm^2 culture flask in Dulbecco's Modified Eagle Medium (DMEM), which had been supplemented with 4 mM L-glutamine, 100 units/ml penicillin, […], 1% sodium pyruvate, 1% non-essential amino acids and 10% heat-inactivated fetal bovine serum.
The viability of the human U87 MG astrocytoma cells were examined at various cannabinoid concentrations. The THC and CBD extracts were compared against pure THC and CBD.
The methods used were as described in Example 1 above.

[2] = test system: Human U87 MG astrocytoma cells xenografted to nude mice; experiment: Tumour volume of U87 MG xenografts in nude mice; format: in vivo; details: following 15 days of treatment, 15 mg/kg per day peritumourally
Procedure: Human U87 MG astrocytoma cells were xenografted to nude mice and the test compounds were injected peritumourally at a concentration of 15 mg/kg per day.

U87MG cells = experiment: Induced cell death with ATG1 silencing or pan-caspase inhibition; details: pan-caspase inhibitor; FIG. 3c

| SMILES | IC50 [1] [µM] | Tumour volume relative to zero time [2] | induced cell death (U87MG cells) |
| --- | --- | --- | --- |
| C=C(C)[C@@H]1CCC(C)=C[C@H]1c1c(O)cc(CCCCC)cc1O [CBD, cannabidiol] | 0.47 |  |  |
| CCCCCc1cc(O)c2c(c1)OC(C)(C)[C@@H]1CCC(C)=C[C@@H]21 [THC, tetrahydrocannabinol] | 0.37 | 5.1 ± 0.4 |  |
| CC(NC(=O)C(NC(=O)OCc1ccccc1)C(C)C)C(=O)NC(CC(=O)O)C(=O)CF (stereo not drawn) [Z-VAD] (Cbz-Val-Ala-Asp-CH2F; configuration not given here) |  |  | prevent induced cell death |
